Patent EP1007530B1, “6-O-SUBSTITUTED ERYTHROMYCIN COMPOUNDS AND METHOD FOR MAKING SAME” (ABBOTT LABORATORIES, priority 1996, dated 1997)

Assays:
Assay in all cases: In vitro assay of antibacterial activity (agar dilution MIC)
Type in all cases: cell-based
[1] = system: Actinetobacter calcoaceticus CMX 669; conditions: BHI agar, 35-37 °C, 20 to 24 hours, unit assumed
Protocol: (§1) Representative compounds of the present invention were assayed in vitro for antibacterial activity as follows: Twelve petri dishes containing successive aqueous dilutions of the test compound mixed with 10 mL of sterilized Brain Heart Infusion (BHI) agar (Difco 0418-01-5) were prepared. Each plate was inoculated with 1:100 (or 1:10 for slow-growing strains, such as Micrococcus and Streptococcus) dilutions of up to 32 different microorganisms, using a Steers replicator block. The inoculated plates were incubated at 35-37 °C for 20 to 24 hours, In addition, a control plate, using BHI agar containing no test compound, was prepared and incubated at the beginning and end of each test.
(§2) An additional plate containing a compound having known susceptibility patterns for the organisms being tested and belonging to the same antibiotic class as the test compound was also prepared and incubated as a further control, as well as to provide test-to-test comparability.
(§3) After incubation, each plate was visually inspected. The minimum inhibitory concentration (MIC) was defined as the lowest concentration of drug yielding no growth, a slight haze, or sparsely isolated colonies on the inoculum spot as compared to the growth control. […]

[2] = system: Staphylococcus aureus A5177; conditions: BHI agar, 35-37 °C, 20 to 24 hours, unit assumed
Protocol: as §1, §2, §3

Escherichia coli H560 = conditions: BHI agar, 35-37 °C, 20 to 24 hours, unit assumed
Protocol: as §1
as §2, with “comparability. Erythromycin A was used for this purpose.” for “comparability.”
as §3

Pseudomonas capacia 2961 = conditions: BHI agar, 35-37 °C, 20 to 24 hours, in µg/mL (unit assumed)
Protocol: as §1
as §2, with “comparability. Erythromycin A was used for this purpose.” for “comparability.”
as §3

[3] = system: Enterobacter aerogenes ATCC 13048; conditions: BHI agar, 35-37 °C, 20 to 24 hours, unit assumed
Protocol: as §1
as §2, with “comparability. Erythromycin A was used for this purpose.” for “comparability.”
as §3

[4] = system: Staphylococcus aureus ATCC 6538P; conditions: BHI agar, 35-37 °C, 20 to 24 hours, unit assumed
Protocol: as §1
as §2, with “comparability. Erythromycin A was used for this purpose.” for “comparability.”
as §3

Candida albicans CCH 442 = conditions: BHI agar, 35-37 °C, 20 to 24 hours, unit assumed
Protocol: as §1
as §2, with “comparability. Erythromycin A was used for this purpose.” for “comparability.”
as §3

[5] = system: Staphylococcus aureus A-5278; conditions: BHI agar, 35-37 °C, 20 to 24 hours, unit assumed
Protocol: as §1
as §2, with “comparability. Erythromycin A was used for this purpose.” for “comparability.”
as §3

[6] = system: Pseudomonas aeruginosa BMH10; conditions: BHI agar, 35-37 °C, 20 to 24 hours, in µg/mL (unit assumed)
Protocol: as §1
as §2, with “comparability. Erythromycin A was used for this purpose.” for “comparability.”
as §3

[7] = system: Streptococcus bovis A-5169; conditions: BHI agar, 35-37 °C, 20 to 24 hours, unit assumed
Protocol: as §1
as §2, with “comparability. Erythromycin A was used for this purpose.” for “comparability.”
as §3

[8] = system: Pseudomonas aeruginosa DPHD-2862; conditions: BHI agar, 35-37 °C, 20 to 24 hours, unit assumed
Protocol: as §1
as §2, with “comparability. Erythromycin A was used for this purpose.” for “comparability.”
as §3

[9] = system: Pseudomonas aeruginosa K799/61; conditions: BHI agar, 35-37 °C, 20 to 24 hours, unit assumed
Protocol: as §1
as §2, with “comparability. Erythromycin A was used for this purpose.” for “comparability.”
as §3

[10] = system: Staphylococcus aureus CMX 642A; conditions: BHI agar, 35-37 °C, 20 to 24 hours, unit assumed
Protocol: as §1
as §2, with “comparability. Erythromycin A was used for this purpose.” for “comparability.”
as §3

[11] = system: Pseudomonas aeruginosa DPHD-5263; conditions: BHI agar, 35-37 °C, 20 to 24 hours, in µg/mL (unit assumed)
Protocol: as §1
as §2, with “comparability. Erythromycin A was used for this purpose.” for “comparability.”
as §3

[12] = system: Staphylococcus epidermidis 3519; conditions: BHI agar, 35-37 °C, 20 to 24 hours, unit assumed
Protocol: as §1
as §2, with “comparability. Erythromycin A was used for this purpose.” for “comparability.”
as §3

[13] = system: Staphylococcus aureus 1775; conditions: BHI agar, 35-37 °C, 20 to 24 hours, unit assumed
Protocol: as §1
as §2, with “comparability. Erythromycin A was used for this purpose.” for “comparability.”
as §3

[14] = system: Streptococcus pyogenes PIU 2548; conditions: BHI agar, 35-37 °C, 20 to 24 hours, unit assumed
Protocol: as §1
as §2, with “comparability. Erythromycin A was used for this purpose.” for “comparability.”
as §3

[15] = system: Streptococcus agalactiae CMX 508; conditions: BHI agar, 35-37 °C, 20 to 24 hours, unit assumed
Protocol: as §1
as §2, with “comparability. Erythromycin A was used for this purpose.” for “comparability.”
as §3

[16] = system: Micrococcus luteus ATCC 9341; conditions: BHI agar, 35-37 °C, 20 to 24 hours, unit assumed
Protocol: as §1
as §2, with “comparability. Erythromycin A was used for this purpose.” for “comparability.”
as §3

[17] = system: Micrococcus luteus ATCC 4698; conditions: BHI agar, 35-37 °C, 20 to 24 hours, unit assumed
Protocol: as §1
as §2, with “comparability. Erythromycin A was used for this purpose.” for “comparability.”
as §3

[18] = system: Streptococcus pyogenes EES61; conditions: BHI agar, 35-37 °C, 20 to 24 hours, unit assumed
Protocol: as §1
as §2, with “comparability. Erythromycin A was used for this purpose.” for “comparability.”
as §3

[19] = system: Staphylococcus aureus NCTC10649M; conditions: BHI agar, 35-37 °C, 20 to 24 hours, unit assumed
Protocol: as §1
as §2, with “comparability. Erythromycin A was used for this purpose.” for “comparability.”
as §3

[20] = system: Streptococcus pyogenes 930; conditions: BHI agar, 35-37 °C, 20 to 24 hours, unit assumed
Protocol: as §1
as §2, with “comparability. Erythromycin A was used for this purpose.” for “comparability.”
as §3

Escherichia coli JUHL = conditions: BHI agar, 35-37 °C, 20 to 24 hours, in µg/mL (unit assumed)
Protocol: as §1
as §2, with “comparability. Erythromycin A was used for this purpose.” for “comparability.”
as §3

Escherichia coli SS = conditions: BHI agar, 35-37 °C, 20 to 24 hours, unit assumed
Protocol: as §1
as §2, with “comparability. Erythromycin A was used for this purpose.” for “comparability.”
as §3

Escherichia coli DC-2 = conditions: BHI agar, 35-37 °C, 20 to 24 hours, unit assumed
Protocol: as §1
as §2, with “comparability. Erythromycin A was used for this purpose.” for “comparability.”
as §3

[21] = system: Enterococcus faecium ATCC 8043; conditions: BHI agar, 35-37 °C, 20 to 24 hours, unit assumed
Protocol: as §1
as §2, with “comparability. Erythromycin A was used for this purpose.” for “comparability.”
as §3

[22] = system: Pseudomonas aeruginosa K799/WT; conditions: BHI agar, 35-37 °C, 20 to 24 hours, unit assumed
Protocol: as §1
as §2, with “comparability. Erythromycin A was used for this purpose.” for “comparability.”
as §3

[23] = system: Pseudomonas aeruginosa 5007; conditions: BHI agar, 35-37 °C, 20 to 24 hours, unit assumed
Protocol: as §1
as §2, with “comparability. Erythromycin A was used for this purpose.” for “comparability.”
as §3

Escherichia coli KNK 437 = conditions: BHI agar, 35-37 °C, 20 to 24 hours, unit assumed
Protocol: as §1
as §2, with “comparability. Erythromycin A was used for this purpose.” for “comparability.”
as §3

[24] = system: Klebsiella pneumoniae ATCC 8045; conditions: BHI agar, 35-37 °C, 20 to 24 hours, unit assumed
Protocol: as §1
as §2, with “comparability. Erythromycin A was used for this purpose.” for “comparability.”
as §3

[25] = system: Staphylococcus aureus CMX 553; conditions: BHI agar, 35-37 °C, 20 to 24 hours, unit assumed
Protocol: as §1
as §2, with “comparability. Erythromycin A was used for this purpose.” for “comparability.”
as §3

[26] = system: Providencia struartii CMX 640; conditions: BHI agar, 35-37 °C, 20 to 24 hours, unit assumed
Protocol: as §1
as §2, with “comparability. Erythromycin A was used for this purpose.” for “comparability.”
as §3

[27] = system: Mycobacterium smegmatis ATCC 114; conditions: BHI agar, 35-37 °C, 20 to 24 hours, unit assumed
Protocol: as §1
as §2, with “comparability. Erythromycin A was used for this purpose.” for “comparability.”
as §3

| Compound | MIC [1] | MIC (Escherichia coli H560) | MIC (Pseudomonas capacia 2961) | MIC [3] | MIC [4] | MIC (Candida albicans CCH 442) | MIC [5] | MIC [6] | MIC [7] | MIC [8] | MIC [9] | MIC [10] | MIC [11] | MIC [12] | MIC [13] | MIC [14] | MIC [15] | MIC [16] | MIC [17] | MIC [19] | other results |
| --- | --- | --- | --- | --- | --- | --- | --- | --- | --- | --- | --- | --- | --- | --- | --- | --- | --- | --- | --- | --- | --- |
| CCCO[C@]1(C)C[C@@H](C)C(=O)[C@H](C)[C@@H](O)[C@](C)(O)[C@@H](CC)OC(=O)[C@H](C)[C@@H](O[C@H]2C[C@@](C)(OC)[C@@H](O)[C@H](C)O2)[C@H](C)[C@H]1O[C@@H]1O[C@H](C)C[C@H](N(C)C)[C@H]1O [Example 2, Compound of Formula (X): X is =O, R is propyl] | > 100 µg/mL | > 100 µg/mL | 50 | > 100 µg/mL | 3.1 µg/mL | 0.1 µg/mL | > 100 µg/mL | >100 | 0.05 µg/mL | > 100 µg/mL | > 100 µg/mL | 12.5 µg/mL | >100 | 1.56 µg/mL | > 100 µg/mL | 6.2 µg/mL | 0.2 µg/mL | 0.2 µg/mL | 3.1 µg/mL | 6.2 µg/mL | MIC [2]: 25 µg/mL; MIC [18]: 0.05 µg/mL; MIC [20]: > 100 µg/mL; MIC (Escherichia coli JUHL): >100; MIC (Escherichia coli SS): 1.56 µg/mL; MIC (Escherichia coli DC-2): > 100 µg/mL; MIC [21]: 3.1 µg/mL; MIC [22]: 6.2 µg/mL; MIC [23]: > 100 µg/mL; MIC (Escherichia coli KNK 437): > 100 µg/mL; MIC [24]: > 100 µg/mL; MIC [25]: 3.1 µg/mL; MIC [26]: > 100 µg/mL |
| CC[C@H]1OC(=O)[C@H](C)[C@@H](O[C@H]2C[C@@](C)(OC)[C@@H](O)[C@H](C)O2)[C@H](C)[C@@H](O[C@@H]2O[C@H](C)C[C@H](N(C)C)[C@H]2O)[C@](C)(OCC=NO)C[C@@H](C)C(=O)[C@H](C)[C@@H](O)[C@]1(C)O [Example 12, Compound of Formula (X): X is =O, R is -CH2-CH=N-OH] | 12.5 µg/mL | 25 µg/mL | > 100 | > 100 µg/mL | 0.39 µg/mL | > 100 µg/mL | > 100 µg/mL | > 100 | 0.05 µg/mL | > 100 µg/mL | 1.56 µg/mL | 0.39 µg/mL | > 100 | 0.39 µg/mL | > 100 µg/mL | 12.5 µg/mL | 0.05 µg/mL | 0.05 µg/mL | 0.78 µg/mL | 0.39 µg/mL | MIC [18]: 0.05 µg/mL; MIC [20]: > 100 µg/mL; MIC (Escherichia coli JUHL): 50; MIC (Escherichia coli SS): 0.78 µg/mL; MIC (Escherichia coli DC-2): > 100 µg/mL; MIC [27]: 0.78 µg/mL; MIC [21]: 0.1 µg/mL; MIC [22]: > 100 µg/mL; MIC [23]: > 100 µg/mL; MIC (Escherichia coli KNK 437): 100 µg/mL; MIC [25]: 0.39 µg/mL; MIC [26]: > 100 µg/mL |
| Compound of Formula (XII): X is-=N-O-(1-isopropoxycyclohexyl), R is allyl, R^p is trimethylsilyl [Example 1B] | 50 µg/mL | 100 µg/mL | > 100 | > 100 µg/mL | 0.78 µg/mL | > 100 µg/mL | > 100 µg/mL | > 100 | 0.02 µg/mL | > 100 µg/mL | 6.2 µg/mL | 1.56 µg/mL | > 100 | 0.39 µg/mL | > 100 µg/mL | 6.2 µg/mL | 0.1 µg/mL | 0.2 µg/mL | 3.1 µg/mL | 3.1 µg/mL | MIC [20]: > 100 µg/mL; MIC (Escherichia coli JUHL): > 100; MIC (Escherichia coli SS): 3.1 µg/mL; MIC (Escherichia coli DC-2): > 100 µg/mL; MIC [21]: 0.2 µg/mL; MIC [22]: > 100 µg/mL; MIC [23]: > 100 µg/mL; MIC (Escherichia coli KNK 437): > 100 µg/mL; MIC [24]: > 100 µg/mL; MIC [25]: 1.56 µg/mL; MIC [26]: > 100 µg/mL |
